Data: patent publication US6329547A, “Vinylbenzene derivatives” (Santen Pharmaceutical Co., Ltd., priority 1998, dated 2001)
Blank lines part the entries; values can stand above or below the molecule they belong to.

Legend:
[1] = tested on: bovine cultured trabecular meshwork cells; assay: Effects on morphology of trabecular meshwork cells (change in cell area by image analysis); assay type: cell-based; details: Bos taurus, 3 h, 37° C., three hours, read-out: EC50 (concentration required to reduce the cell area of the trabecular meshwork cells by 50%)
From the text: A possibility has been reported that drugs having effects of increasing aqueous humor outflow can be found by evaluating effects of drugs on morphology of cultured trabecular meshwork cells (Invest. Ophthalmol. Vis. Sci., 33, 2631-2640 (1992)). Accordingly, effects of the present compounds on morphology of bovine cultured trabecular meshwork cells were studied in the similar manner to the method described in the above-mentioned literature. Experimental Method Morphological changes in bovine cultured trabecular meshwork cells by adding the present compounds were quantitatively evaluated by image analysis. […] Bovine trabecular meshwork cells (passage number 1 to 5) cultured in a basal medium for mammalian cell culture d-MEM (Dulbecco's Modified Eagle Medium, manufactured by Gibco Co., Ltd.) containing fetal bovine serum (10%), amphotericin B (2.5 μg/ml) and gentamicin (50 μg/ml) were treated with a trypsin-EDTA solution (0.05% trypsin, 0.53 mM EDTA·4 Na) 24 hours before the later drug treatment and seeded in a 24-well plate (10^4 cells/well). Twelve hours before the later drug treatment, the cells were washed with phosphate-buffered physiological saline, and then the medium was replaced by D-MEM containing amphotericin B (2.5 μg/ml) and gentamicin (50 μg/ml) (hereinafter referred to as "medium A"). […] A test compound was dissolved in dimethyl sulfoxide (DMSO), and the medium A was added to the solution, followed by sterilizing the solution by filtration. The medium A was further added to the solution to dilute it at a prescribed concentration. This diluted solution was maintained isothermally under a 5% carbon dioxide gas atmosphere at 37° C. for one hour, from one hour before the later drug treatment to prepare a test compound solution. Method of Measurement First, cells were photographed using a well-scanner one hour before the drug treatment. Next, the medium of the cells was replaced by the test compound solution, and the cells were treated with the drug and incubated under a 5% carbon dioxide gas atmosphere at 37° C. for three hours. Then, the same cells as those photographed one hour before the drug treatment were photographed using the well-scanner. Image Analysis Photographed cell images were incorporated from the photographs into an image analysis system with a CCD camera (manufactured by […] Co., Ltd.). Outlines of the incorporated cell images were traced, and areas were measured. Degrees of the morphological changes made by the test compounds on the trabecular meshwork cells are expressed by the following rates of changes in areas (%).

[2] = tested on: laser-induced high intraocular pressure monkey models (intraocular pressure); assay: Intraocular pressure-lowering effects by instillation using laser-induced high intraocular pressure animal models; assay type: in vivo, cynomolgus monkey; details: for Intraocular pressure change difference: 0.3% solution instilled twice a day, six hours after morning instillation, vs vehicle, average of five eyes
From the text: A method of evaluating intraocular pressure-lowering effects of the drugs by instilling them into laser-induced high intraocular pressure monkey models has been reported (Arch. Opththalmol., 105, 249-252 (1987)). Accordingly, intraocular pressure-lowering effects by instilling the present compound were studied in the similar manner to the method described in the above-mentioned literature.
Male cynomolgus monkeys weighing 5 to 6 kg were used for experiment. Five eyes of four monkeys of which intraocular pressure had been elevated by irradiating trabecular meshwork of the monkeys at 100 to 150 spots every one week with an argon laser (Coherent Radiation, Models 800) were used. Laser irradiation conditions were set at 1000 mW and 0.2 sec.
Preparation of Test Compound Solution
A test compound was dissolved in purified water, then concentrated glycerin and sodium chloride were added to the solution to adjust osmotic pressure to 1, and 0.1 M aqueous sodium hydroxide solution was added thereto to adjust pH to 7.4 and to prepare a 0.3% solution. Then, the solution was sterilized by filtration to prepare a test compound solution.
Method of Administering Drugs
First, in order to study effects of a vehicle on intraocular pressure, only vehicle was instilled twice a day (at 10 a.m. and 5 p.m.) for one week continuously. Then, the test compound solution was instilled twice a day (at 10 a.m. and 5 p.m.) for one week continuously.
Intraocular pressure was measured with an applanation tonometer before administering the drug and a prescribed period after the instillation. Chlorpromazine (1 mg/kg) was administered intramuscularly to the cynomolgus monkey one hour before the measurement to sedate the monkey, one drop of a 0.4% oxybuprocaine hydrochloride eyedrops, which is a local anesthetic, was instilled into the monkey, and then the intraocular pressure was measured.
Intraocular pressure change difference (mmHg)=[IOP(D-6)-IOP(D-0)]-[IOP(V-6)-IOP(V-0)]
IOP(D-6): Intraocular pressure measured six hours after the morning instillation of the test compound solution
IOP(D-0): Intraocular pressure measured before administering the test compound solution
IOP(V-6): Intraocular pressure measured six hours after the morning instillation of the vehicle
IOP(V-0): Intraocular pressure measured before administering the vehicle

[3] = tested on: cynomolgus monkeys (intraocular pressure); assay: Intraocular pressure-lowering effects by anterior chamber administration; assay type: in vivo, cynomolgus monkey; details: 10 μl of 10^-3 M, 1% DMSO into anterior chamber, vehicle in other eye
Procedure: Healthy male cynomolgus monkeys weighing 4.0 to 7.0 kg and being four to seven years old were used as experimental animals.
A test compound to be used was dissolved in dimethyl sulfoxide (DMSO), and then phosphate-buffered physiological saline was added to the solution to dilute it at a prescribed concentration (10^-3 M, 1% DMSO), followed by sterilizing the solution by filtration to prepare a test compound solution.
Only vehicle was administered into the other eye.
The intraocular pressure was measured with an applanation tonometer immediately before and prescribed periods after administering the test compound. […]
IOP(D-t): Intraocular pressure of the eye into which the test compound was administered, measured (t) hours after administering the test compound
IOP(D-0): Intraocular pressure of the eye into which the test compound was administered, measured immediately before administering the test compound
IOP(V-t): Intraocular pressure of the eye into which the vehicle was administered, measured (t) hours after administering the vehicle
IOP(V-0): Intraocular pressure of the eye into which the vehicle was administered, measured immediately before administering the vehicle

[4] = tested on: trabecular meshwork cells; details: Japanese Examined Patent Publication No. 13013/1995; cited from earlier work

Structure (SMILES): C=C(C(=O)c1ccc(/C=C/C(=O)O)cc1)c1c(F)c(F)c(F)c(F)c1F [Compound No. 8-1, 4-[2-(2,3,4,5,6-Pentafluorophenyl)acryloyl]cinnamic acid]
- EC50 [1]: 660 nM

Structure (SMILES): C=C(C(=O)c1ccc(/C=C/C(=O)O)cc1)c1ccccc1 [Compound No. 8-7, 4-(2-Phenylacryloyl)cinnamic acid]
- Intraocular pressure change difference ([2]; 1st day): +5.8 mmHg
- Intraocular pressure change difference ([2]; 2nd day): -7.6 mmHg
- Intraocular pressure change difference ([2]; 3rd day): -6.6 mmHg
- Intraocular pressure change difference ([2]; 4th day): -1.2 mmHg
- Intraocular pressure change difference ([2]; 5th day): -6.6 mmHg
- Intraocular pressure change difference ([2]; 6th day): -8.6 mmHg
- Intraocular pressure change difference ([2]; 7th day): -2.8 mmHg
- intraocular pressure-lowering effect (in words) ([2]; instillation, 0.3% solution twice a day for one week): excellent intraocular pressure-lowering effect
- disorder in an anterior segment of the eye ([2]; throughout all instillation periods, 0.3% solution twice a day for one week): No disorder was recognized in an anterior segment of the eye
- EC50 [1]: 810 nM
- Maximum intraocular pressure-lowering value ([3]; average value of six samples): 7.0 mmHg

Structure (SMILES): C=C(C(=O)c1ccc(/C(C)=C/C(=O)O)cc1)c1ccccc1 [Compound No. 8-10, β-Methyl-4-(2-phenylacryloyl)cinnamic acid]
- EC50 [1]: 2900 nM

Structure (SMILES): C=C(CC)C(=O)c1ccc(OCC(=O)O)c(Cl)c1Cl [Ethacrynic acid, reference compound]
- effect on intraocular pressure and trabecular meshwork cells reported in the literature [4]: lowering intraocular pressure by making a morphological change in trabecular meshwork cells and increasing the rate of aqueous humor outflow
- EC50 [1]: 62000 nM
- Maximum intraocular pressure-lowering value ([3]; average value of five samples): 2.0 mmHg

More lines, in order of falling EC50 [1], values ahead:

- EC50 [1]: 3900 nM
Structure (SMILES): C=C(C(=O)c1ccc(/C=C(\C)C(=O)O)cc1)c1ccccc1 [Compound No. 8-9, α-Methyl-4-(2-phenylacryloyl)cinnamic acid]

- EC50 [1]: 1700 nM
Structure (SMILES): C=C(C(=O)c1ccc(/C=C/C(=O)O)cc1)c1ccc([N+](=O)[O-])cc1 [Compound No. 8-2, 4-[2-(4-Nitrophenyl)acryloyl]cinnamic acid]
